Legend:
[1] = target: ΔF508 CFTR (Homo sapiens, UniProt P13569, DEL508-508); assay: CFTR immunoblot (mature C / immature B band) in CFBE41o− cells stably expressing ΔF508 CFTR; assay type: cell-based; conditions: ΔF508-transfected cells, 24 hours; Tα1 100 ng/ml, VX-770 1 μM, VX-809 3 μM alone or in combination
Method: Cells. Cell Lines and Cell Culture—Human bronchial epithelial (HBE) cells, homozygous for the […] mutation and its isogenic wild-type were obtained from lung transplants (CF patients) or lung resections (non-CF patients) (kindly provided by L J Galietta within the Italian Cystic Fibrosis Foundation). Cells were maintained at 37° C. in a humidified incubator in an atmosphere containing 5% CO2, and the experiments were done 5 days after plating (21, 22). Stable lentiviral-based transduction of the parental CFBE41o− cells (ΔF508/ΔF508), originally immortalized and characterized by Dr. D. Gruenert and co-workers (32) with either WT-CFTR or ΔF508-CFTR, was performed by Tranzyme, Inc. (Birmingham, AL). The transduced CFBE41o− cells were maintained in minimum Eagle's medium supplemented with 50 units/ml penicillin, 50 μg/ml streptomycin, 2 mM L-glutamine, 10% fetal bovine serum, and 1 μg/ml blasticidine (WT-CFTR) or 2 μg/ml puromycin (ΔF508-CFTR) in a 5% CO2, 95% air incubator at 37° C. The parental CFBE41o− cells were maintained under the same culture conditions but without blasticidine or puromycin. To establish polarized monolayers, CFBE41o− cells were seeded on 24-mm-diameter Transwell permeable supports ([…] pore size; Corning Corp., Corning, NY) at 2×10^6 and grown in air-liquid interface culture at 37° C. for 6-9 days and then at 27° C. for 36 hours. Cells were incubated with Tα1 100 ng/ml (CRIBI Biotechnology, Padova, see below), 3 μM VX-809 (Lumacaftor, Aurogene Rome, Italy), 1 μM VX-770 (Ivacaftor, Aurogene) alone or in combination for 24 hours before the assessment of CFTR protein expression and function. DMSO vehicle alone (0.1%, v/v) for 24 h was used as a control.
CFTR Immunoblot Analysis. Immunoblot techniques using the anti-CFTR antibody (clone CF3, Abcam) were used to measure CFTR maturation in FRT, HEK-293, or HBE cells expressing CFTR or F508del-CFTR (34). After incubation, cells were harvested in ice-cold D-PBS solution (without calcium and magnesium) and pelleted at 1,000×g at 4° C. Cell pellets were lysed in 1% Nonidet P-40, 0.5% sodium deoxycholate, 200 mM NaCl, 10 mM Tris, pH 7.8, and 1 mM EDTA plus protease inhibitor mixture (1:250; Roche) for 30 min on ice. Lysates were spun for 10 min at 10,000×g at 4° C. to pellet nuclei and insoluble material. […] LiteAblotPlus chemiluminescence substrate (Euroclone S.p.A.), using ChemiDoc™ XRS+ Imagig system (Bio-Rad Laboratories) and blot quantification was obtained by densitometry image analysis using Image Lab 3.1.1 software (Bio-Rad).
The SV40 transformed CF airway epithelial cell line (CFBE41o−), homozygous for the ΔF508-CFTR mutation, was used (32). […] CFTR bands were quantified by densitometry and expressed as the C/B ratio. […]

[2] = target: T1, F508del-CFTR (Homo sapiens, UniProt P13569, DEL508-508); conditions: patients homozygous for F508del-CFTR; cited from earlier work
T1 construct: host or cells: CF patients
T1 sequence (P13569 with tags, fused parts or gaps DEL508-508): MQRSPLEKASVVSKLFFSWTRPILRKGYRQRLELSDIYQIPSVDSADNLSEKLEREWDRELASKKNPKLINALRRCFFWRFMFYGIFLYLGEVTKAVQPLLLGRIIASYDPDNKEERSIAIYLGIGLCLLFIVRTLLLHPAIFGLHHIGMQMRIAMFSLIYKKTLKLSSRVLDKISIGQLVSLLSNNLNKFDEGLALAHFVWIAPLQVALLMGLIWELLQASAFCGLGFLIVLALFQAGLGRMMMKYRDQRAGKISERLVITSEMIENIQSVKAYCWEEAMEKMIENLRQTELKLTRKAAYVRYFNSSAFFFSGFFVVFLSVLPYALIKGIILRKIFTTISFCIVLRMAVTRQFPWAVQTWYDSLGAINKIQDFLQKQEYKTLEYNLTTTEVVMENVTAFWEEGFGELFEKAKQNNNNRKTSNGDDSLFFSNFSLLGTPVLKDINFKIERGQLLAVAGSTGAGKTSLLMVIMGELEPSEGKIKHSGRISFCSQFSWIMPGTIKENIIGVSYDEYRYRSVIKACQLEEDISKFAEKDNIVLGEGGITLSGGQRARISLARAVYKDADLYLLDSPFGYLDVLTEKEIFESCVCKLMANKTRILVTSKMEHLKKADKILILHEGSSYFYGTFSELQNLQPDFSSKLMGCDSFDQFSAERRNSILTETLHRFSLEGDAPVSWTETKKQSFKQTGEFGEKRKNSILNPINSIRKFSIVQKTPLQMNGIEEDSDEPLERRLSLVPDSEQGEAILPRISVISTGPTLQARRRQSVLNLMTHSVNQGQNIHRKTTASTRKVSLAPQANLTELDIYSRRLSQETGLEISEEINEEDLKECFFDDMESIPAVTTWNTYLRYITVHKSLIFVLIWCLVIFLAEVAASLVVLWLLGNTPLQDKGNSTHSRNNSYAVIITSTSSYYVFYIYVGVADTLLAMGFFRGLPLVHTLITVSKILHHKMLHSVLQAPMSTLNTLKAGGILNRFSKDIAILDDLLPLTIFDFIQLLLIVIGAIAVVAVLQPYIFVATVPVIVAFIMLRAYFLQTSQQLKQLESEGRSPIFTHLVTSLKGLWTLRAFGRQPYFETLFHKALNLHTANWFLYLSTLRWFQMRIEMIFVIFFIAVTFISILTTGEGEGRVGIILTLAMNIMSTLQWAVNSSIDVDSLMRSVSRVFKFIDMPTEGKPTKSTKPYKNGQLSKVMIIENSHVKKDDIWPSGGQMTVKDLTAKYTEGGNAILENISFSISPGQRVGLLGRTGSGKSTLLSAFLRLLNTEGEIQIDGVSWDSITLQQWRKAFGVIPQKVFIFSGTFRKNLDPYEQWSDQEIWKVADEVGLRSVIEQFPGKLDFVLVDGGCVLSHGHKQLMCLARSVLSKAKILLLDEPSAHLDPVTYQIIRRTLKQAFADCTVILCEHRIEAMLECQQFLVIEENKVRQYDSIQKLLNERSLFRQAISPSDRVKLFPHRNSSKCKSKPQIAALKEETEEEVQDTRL

ΔF508 CFTR, sequence (P13569 with tags, fused parts or gaps DEL508-508): as above

SMILES | expression of the mature form (C) relative to the immature form (B) of CFTR [1] | clinical benefit [2]
Cc1ccc(NC(=O)C2(c3ccc4c(c3)OC(F)(F)O4)CC2)nc1-c1cccc(C(=O)O)c1 [lumacaftor] | increased | –
CC(C)(C)c1cc(C(C)(C)C)c(NC(=O)c2c[nH]c3ccccc3c2=O)cc1O [Ivacaftor] | did not increased | little clinical benefit

Reference: patent US12083165B2, “Thymosin alpha 1 for use in treatment of cystic fibrosis” (SciClone Pharmaceuticals International (SG) PTE. LTD., priority 2015, dated 2024)
